1 substance from patent publication US10532082B2, “SOCS1-derived peptide for use in chronic complications of diabetes” (Fundació Hospital Universitari Vall d'Hebron-Institut de …, priority 2014, dated 2020) can be followed below.

For assay [1], the system named is diabetic mice (db/db). Nature of the assay: Retinal glutamate metabolism (GLAST immunofluorescence, glutamate by UPLC). The assay is classed as in vivo. The conditions noted are these: eye drops 15 days. How it is done: 8-week old diabetic mice (db/db) received the miS1 peptide in the form of eye drops (5 μL drops in each eye; 10 mg/mL; twice a day for 15 days; n=7 mice). Diabetic mice treated with the non-functional peptide Mut (n=7), treated with vehicle and non-diabetic mice (db/+) were used as controls. The eye drops were directly administered on the upper surface of the cornea of each eye using a micropipette. The weight and glycemia (colorimetric assay) were controlled throughout the study period. On day 15, the drop with the miS1 peptide or vehicle was administered about two hours before autopsy. […]
The glutamate metabolism was evaluated in order to investigate the mechanisms through which the miS1 peptide produces neuroprotection. The glutamate concentration was determined by means of ultra-high performance liquid chromatography (UPLC) (Acquity-UPLC, Waters) MassTrak amino acid system). The GLAST (Glutamate/Aspartate transporter) was evaluated by means of immunofluorescence.
The paraffin sections were deparaffinized in xylene and rehydrated in a gradual series of ethanol. […] The GLAST immunofluorescence was quantified by means of laser confocal microscopy (Olympus FluoView™ FV1000 confocal microscope, Hamburg, Germany) using the ImageJ software.

In assay [2] the test system is STAT1. Nature of the assay: STAT1 activation in cytokine-stimulated macrophages (Western blot). It is filed as cell-based, murine. The settings on record: pre-incubation 50-150 ug/mL (Mut 150 ug/mL), IFNγ and IL-6 stimulation. How it is done: RAW264.7 macrophages and vascular smooth muscle cells (VSMC) cultured in a medium with 10% fetal bovine serum were used. The cells were synchronized (24 hours without serum), pre-incubated for 90 minutes with different peptide concentrations (miS1 or the control thereof, 50-150 μg/mL) and stimulated with cytokines (IFNγ […]). STAT activation was analyzed by means of Western blot for phosphorylated STAT1/STAT3 isoforms. JAK/STAT pathway-dependent chemokine (CCL2) expression was determined by means of ELISA. Cell viability was analyzed by MTT colorimetric assay and macrophage migration was analyzed by chemotaxis assay.

For assay [3], the system named is STAT3. Nature of the assay: STAT3 activation in cytokine-stimulated VSMC. It is filed as cell-based, mouse. The settings on record: IFNγ and IL-6 stimulation, immunofluorescence images.

Where no end group is shown, it is not given here. [ ]: non-standard residue; d: D form. lysine‑palmitate = lysine-palmitate bound at the N-terminal end; pY = N[C@@H](Cc1ccc(OP(=O)(O)O)cc1)C(=O)O

Take “miS1: SEQ ID NO 1 DTHFRTFRSHSDYRRI, kinase inhibitory region of murine SOCS1, bound to lysine-palmitate at the N-terminal end, tyrosine phosphorylated ({lysine‑palmitate}-DTHFRTFRSHSD[pY]RRI)”: the intraretinal glutamate levels result in assay [1] (UPLC) is reported as “reduced but without reaching statistical significance”. In assay [1] (immunofluorescence), the “GLAST content in retina” value was “downregulation was prevented”. In addition, the “STAT1 activation (phosphorylation)” value in assay [2] is “reduced STAT1 and STAT3 activation in a dose-dependent manner”. Further, in assay [3], the STAT3 activation entry is listed as “prevented”.
